How the values were obtained:
Format in all cases: in vivo
Oats = experiment: Greenhouse spray, phytotoxicity and mortality over time
Method: (§1) Herbicidal treatments were applied using a spray chamber fitted with a TeeJet 8006E flat fan nozzle (available from Spraying Systems Co., Wheaton, Ill.), calibrated to spray at a volume of 60 gpa at 40 psi. Treatment solutions were freshly prepared for each experiment. […] M. et al, J. Wiley and Sons, 1975, pp. 119–120, 218.
(§2) In a greenhouse facility four plant species were grown in 5.5 cm square pots using a potting soil mix comprising peat, vermiculite, sand and 4-10-10 fertilizer. Water soluble 20-20-20 fertilizer was used as a supplement for the plants as required. The plant species used were corn, oats, radish and morningglory. The plants were selected for use based on uniformity and quality. The corn plants used were in the 3 to 4 leaf stage and two plants were present in each pot. The oats used were in the 2 to 4 leaf stage and four plants were present per pot. The radish plants used were in the 3 to 5 leaf stage and one plant was used per pot. The morningglory were in the 2 to 4 leaf stage with one plant per pot. After spraying with a herbicidal formulation, the pots were arranged in a randomized complete block design in sub-irrigated watering trays, and included a water-treated control treatment. Four replicates (pots) were used for each treatment.
(§3) Herbicidal treatments were applied and recorded as in Example 1.

Corn = experiment: as above; details: for Mortality: plants died of 8
Method: as §1, §2, §3

Morningglory = experiment: as above; details: for Mortality: plants died of 4
Method: as §1, §2, §3

Avena sativa (oats) = experiment: Greenhouse post-emergence spray, plant damage rating; details: A. sativa, alone and combined
Method: (§4) Three species of weed, used in each test: Hypochoeris radicata (false dandelion), Sinapis, arvensis (wild mustard), and Avena sativa (oats), were grown in a greenhouse facility in 5.5 cm square pots using a potting soil mix comprising peat, vermiculite, sand, and 4-10-10 fertilizer. Water-soluble 20-20-20 fertilizer was used as a supplement for the plants as required. The plants were selected for use based on uniformity and quality and were potted separately. One plant per pot each of H. radicata (6–10 leaves) and S. arvensis (4–6 leaves) were used. Six to eight plants of A. sativa (2–4 leaves) were used per pot. After spraying with a herbicidal composition (as described below) the pots were arranged in a randomized complete block design in sub-irrigated watering trays. Six to ten replicates (pots) were used per treatment.
(§5) Herbicidal treatments were applied using a spray chamber fitted with a TeeJet 8006E flat fan nozzle (available from Spraying Systems Co., Wheaton, Ill.), calibrated to spray at a volume of 60 gpa at 40 psi. Treatment solutions were freshly prepared for each experiment. Plant damage was assessed at 10 to 14 days after treatment using a pre-transformed 0–10 rating scale (0 representing no damage, 10 representing plant death) in accordance with the procedure outlined in Statistical Methods in Agricultural Research, Little, T. M. et al, J. Wiley and Sons, 1975, pp. 119–120, 218.

[1] = tested on: Sinapis arvensis (wild mustard); experiment: as above; details: S. arvensis, alone and combined
Method: as §4, §5

[2] = tested on: Hypochoeris radicata (false dandelion); experiment: as above; details: H. radicata, alone and combined
Method: as §4, §5

[3] = Table 2 set 1: Round-Up 0.1%, Sodium pelargonate 0.1%
[4] = Table 2 set 2: Round-Up 0.1%, Sodium pelargonate 0.1% (so in the source)
[5] = Table 2 set 3: Round-Up 0.1%, Sodium pelargonate 0.1% (so in the source)

CCCCCCCCC(=O)[O-].[Na+] [Sodium pelargonate]
Phyto (phytotoxicity ratings, 0–10 rating scale) (Oats; 2 Days after Treatment): 0 | Phyto (phytotoxicity ratings, 0–10 rating scale) (Oats; 4 Days after Treatment): 0 | Phyto (phytotoxicity ratings, 0–10 rating scale) (Oats; 7 Days after Treatment): 0 | Phyto (phytotoxicity ratings, 0–10 rating scale) (Oats; 9 Days after Treatment): 0 | Phyto (phytotoxicity ratings, 0–10 rating scale) (Oats; 11 Days after Treatment): 0 | Phyto (phytotoxicity ratings, 0–10 rating scale) (Oats; 16 Days after Treatment): 0 | Phyto (phytotoxicity ratings, 0–10 rating scale) (Oats; 18 Days after Treatment): 0 | Phyto (phytotoxicity ratings, 0–10 rating scale) (Oats; 21 Days after Treatment): 0 | Phyto (phytotoxicity ratings, 0–10 rating scale) (Oats; 23 Days after Treatment): 0 | Phyto (phytotoxicity ratings, 0–10 rating scale) (Oats; 25 Days after Treatment): 0 | Phyto (phytotoxicity ratings, 0–10 rating scale) (Oats; 28 Days after Treatment): 0 | Phyto (phytotoxicity ratings, 0–10 rating scale) (Oats; 30 Days after Treatment): 0 | Phyto (phytotoxicity ratings, 0–10 rating scale) (Oats; 32 Days after Treatment): 0 | Phyto (phytotoxicity ratings, 0–10 rating scale) (Oats; 35 Days after Treatment): 0 | Phyto (Phytotoxicity, 0–10 rating scale) (Corn; 2 Days after Treatment): 0 | Mortality (Corn; 2 Days after Treatment): 0 | Phyto (Phytotoxicity, 0–10 rating scale) (Corn; 4 Days after Treatment): 0 | Mortality (Corn; 4 Days after Treatment): 0 | Phyto (Phytotoxicity, 0–10 rating scale) (Corn; 7 Days after Treatment): 0 | Mortality (Corn; 7 Days after Treatment): 0 | Phyto (Phytotoxicity, 0–10 rating scale) (Corn; 9 Days after Treatment, listed as 0.1% C9 Na^+ Salt): 0 | Phyto (Phytotoxicity, 0–10 rating scale) (Corn; 9 Days after Treatment, listed as 0.5% C9 Na^+ Salt): 0.5 | Phyto (Phytotoxicity, 0–10 rating scale) (Corn; 9 Days after Treatment, listed as 1.0% C9 Na^+ Salt): 0 | Mortality (Corn; 9 Days after Treatment): 0 | Phyto (Phytotoxicity, 0–10 rating scale) (Corn; 11 Days after Treatment, listed as 0.1% C9 Na^+ Salt): 0 | Phyto (Phytotoxicity, 0–10 rating scale) (Corn; 11 Days after Treatment, listed as 0.5% C9 Na^+ Salt): 0.5 | Phyto (Phytotoxicity, 0–10 rating scale) (Corn; 11 Days after Treatment, listed as 1.0% C9 Na^+ Salt): 0 | Mortality (Corn; 11 Days after Treatment): 0 | Phyto (Phytotoxicity, 0–10 rating scale) (Corn; 16 Days after Treatment, listed as 0.1% C9 Na^+ Salt): 0.25 | Phyto (Phytotoxicity, 0–10 rating scale) (Corn; 16 Days after Treatment, listed as 0.5% C9 Na^+ Salt): 1.0 | Phyto (Phytotoxicity, 0–10 rating scale) (Corn; 16 Days after Treatment, listed as 1.0% C9 Na^+ Salt): 0.25 | Mortality (Corn; 16 Days after Treatment): 0 | Phyto (Phytotoxicity, 0–10 rating scale) (Corn; 18 Days after Treatment, listed as 0.1% C9 Na^+ Salt): 1.0 | Phyto (Phytotoxicity, 0–10 rating scale) (Corn; 18 Days after Treatment, listed as 0.5% C9 Na^+ Salt): 1.0 | Phyto (Phytotoxicity, 0–10 rating scale) (Corn; 18 Days after Treatment, listed as 1.0% C9 Na^+ Salt): 0.25 | Mortality (Corn; 18 Days after Treatment): 0 | Phyto (Phytotoxicity, 0–10 rating scale) (Corn; 21 Days after Treatment, listed as 0.1% C9 Na^+ Salt): 1.0 | Phyto (Phytotoxicity, 0–10 rating scale) (Corn; 21 Days after Treatment, listed as 0.5% C9 Na^+ Salt): 1.0 | Phyto (Phytotoxicity, 0–10 rating scale) (Corn; 21 Days after Treatment, listed as 1.0% C9 Na^+ Salt): 0.5 | Mortality (Corn; 21 Days after Treatment): 0 | Phyto (Phytotoxicity, 0–10 rating scale) (Corn; 23 Days after Treatment, listed as 0.1% C9 Na^+ Salt): 1.0 | Phyto (Phytotoxicity, 0–10 rating scale) (Corn; 23 Days after Treatment, listed as 0.5% C9 Na^+ Salt): 1.0 | Phyto (Phytotoxicity, 0–10 rating scale) (Corn; 23 Days after Treatment, listed as 1.0% C9 Na^+ Salt): 0.75 | Mortality (Corn; 23 Days after Treatment): 0 | Phyto (Phytotoxicity, 0–10 rating scale) (Corn; 25 Days after Treatment): 1.0 | Mortality (Corn; 25 Days after Treatment): 0 | Phyto (Phytotoxicity, 0–10 rating scale) (Corn; 28 Days after Treatment): 0 | Mortality (Corn; 28 Days after Treatment): 0 | Phyto (Phytotoxicity, 0–10 rating scale) (Corn; 30 Days after Treatment): 0 | Mortality (Corn; 30 Days after Treatment): 0 | Phyto (Phytotoxicity, 0–10 rating scale) (Corn; 32 Days after Treatment): 0 | Mortality (Corn; 32 Days after Treatment): 0 | Phyto (Phytotoxicity, 0–10 rating scale) (Corn; 35 Days after Treatment): 0 | Mortality (Corn; 35 Days after Treatment): 0 | Phyto (Phytotoxicity, 0–10 rating scale) (Corn; 42 Days after Treatment): 0 | Mortality (Corn; 42 Days after Treatment): 0 | Phyto (Phytotoxicity, 0–10 rating scale) (Corn; 46 Days after Treatment): 0 | Mortality (Corn; 46 Days after Treatment): 0 | Phyto (Phytotoxicity, 0–10 rating scale) (Corn; 57 Days after Treatment): 0 | Mortality (Corn; 57 Days after Treatment): 0 | Phyto (Phytotoxicity, 0–10 rating scale) (Morningglory; 2 Days after Treatment): 0 | Mortality (Morningglory; 2 Days after Treatment): 0 | Phyto (Phytotoxicity, 0–10 rating scale) (Morningglory; 4 Days after Treatment): 0 | Mortality (Morningglory; 4 Days after Treatment): 0 | Phyto (Phytotoxicity, 0–10 rating scale) (Morningglory; 7 Days after Treatment): 0 | Mortality (Morningglory; 7 Days after Treatment): 0 | Phyto (Phytotoxicity, 0–10 rating scale) (Morningglory; 9 Days after Treatment): 0 | Mortality (Morningglory; 9 Days after Treatment): 0 | Phyto (Phytotoxicity, 0–10 rating scale) (Morningglory; 11 Days after Treatment): 0 | Mortality (Morningglory; 11 Days after Treatment): 0 | Phyto (Phytotoxicity, 0–10 rating scale) (Morningglory; 16 Days after Treatment): 0 | Mortality (Morningglory; 16 Days after Treatment): 0 | Phyto (Phytotoxicity, 0–10 rating scale) (Morningglory; 18 Days after Treatment): 0 | Mortality (Morningglory; 18 Days after Treatment): 0 | Phyto (Phytotoxicity, 0–10 rating scale) (Morningglory; 21 Days after Treatment): 0 | Mortality (Morningglory; 21 Days after Treatment): 0 | Phyto (Phytotoxicity, 0–10 rating scale) (Morningglory; 23 Days after Treatment): 0 | Mortality (Morningglory; 23 Days after Treatment): 0 | Phyto (Phytotoxicity, 0–10 rating scale) (Morningglory; 25 Days after Treatment): 0 | Mortality (Morningglory; 25 Days after Treatment): 0 | Phyto (Phytotoxicity, 0–10 rating scale) (Morningglory; 28 Days after Treatment): 0 | Mortality (Morningglory; 28 Days after Treatment): 0 | Phyto (Phytotoxicity, 0–10 rating scale) (Morningglory; 30 Days after Treatment): 0 | Mortality (Morningglory; 30 Days after Treatment): 0 | Phyto (Phytotoxicity, 0–10 rating scale) (Morningglory; 32 Days after Treatment): 0 | Mortality (Morningglory; 32 Days after Treatment): 0 | Phyto (Phytotoxicity, 0–10 rating scale) (Morningglory; 35 Days after Treatment): 0 | Mortality (Morningglory; 35 Days after Treatment): 0 | Phytotoxicity (%) Observed (Avena sativa (oats); [3]): 0% | Phytotoxicity (%) Observed (Avena sativa (oats); [4]): 0% | Phytotoxicity (%) Observed (Avena sativa (oats); [5]): 1% | Phytotoxicity (%) Observed [1, 3]: 0% | Phytotoxicity (%) Observed [1, 4]: 0% | Phytotoxicity (%) Observed [1, 5]: 0% | Phytotoxicity (%) Observed [2, 3]: 0% | Phytotoxicity (%) Observed [2, 4]: 0% | Phytotoxicity (%) Observed [2, 5]: 0%
